# Earlier results in patent US7834031B2, “Radiolabeled glycine transporter inhibitors” (Merck Sharp & Dohme Corp., priority 2005, dated 2010).
# Experiments:
# NMDA receptor activity = conditions: rat
# pre-pulse inhibition = conditions: mice; measure of sensory gating
# [1] = system: symptoms of schizophrenia; conditions: high doses, oral, add-on to standard neuroleptic therapy
# [2] = system: symptoms of schizophrenia; conditions: schizophrenia patients poorly responsive to antipsychotic drugs
smiles,measurement,setting,value
"CN(CCC(Oc1ccc(-c2ccccc2)cc1)c1ccc(F)cc1)CC(=O)O (stereo not shown) [NFPS, (N-[3-(4′-fluorophenyl)-3-(4′-phenylphenoxy)propyl])sarcosine]",NMDA receptor activity and NMDA receptor-dependent long-term potentiation,NMDA receptor activity,potentiates NMDA receptor activity and NMDA receptor-dependent long-term potentiation
same,pre-pulse inhibition,pre-pulse inhibition,enhance pre-pulse inhibition
NCC(=O)O [glycine],symptoms of schizophrenia patients,[1],improvement of the symptoms
CNCC(=O)O [sarcosine],"effect on positive, negative and cognitive symptoms",[2],beneficial effect
